Where two headings read alike, the source gives them in different places.
Tests used:
[1] = system: white blood cell counts (WBC), hemolymphopoietic elements; assay: Blood counts (WBC, RBC, Hb, PLT) after single IV dose of 153Sm-EDTMP; format: in vivo, C57BL/6 mice; set-up: time at which myelodepression occurred: unit not given here
Experimental: (§1) Bone marrow-derived Cell Transplantation. Balb/c mice, 8-9 weeks old, used as donors, were sacrificed on the day of the transplant. Bone marrow cells (BMC) were prepared according to a previously published regimen. Briefly, after removing femura and tibiae, and cleaning them from muscle tissue and cartilage, BMC were flushed with sterile RPMI-1640 (Mediatech, Inc, Herndon, Va.) supplemented with 0.8 mg/ml Gentamycin (Gibco, Gaithersburg, Md.), using 23G needle. BMC were filtered through a sterile nylon mesh and counted. Fully MCH-mismatched C57BL/6 recipients, 9-10 weeks of age, were injected intravenously with either 20×10^6 or 100×10^6 unmanipulated BMCs resuspended in 0.5 and 1.0 ml of HBSS Hank's Balanced Saline Solution) (Mediatech) respectively, on either day 7 or 14. Tolerance induction protocol consisted of either 150 or 500 μCi of ^153Sm-EDTMP (Berlex Laboratories Wayne, N.J.), I.V., on day—7, and 0.5 mg hamster anti-murine CD154 mAb (MR-1), purchased from Taconic (Germantown, N.Y.) administered intraperitoneally (I.P.) on days—1,0,7,14, 21 and 28.
Recipient animals (C57BL/6, H-2^b) were treated with a single IV dose of ^153Sm-EDTMP, 150 μCi or 500 μCi, prior to administration of 20×10^6 or 100×10^6 allogenic donor bone marrow cells (BMC) (BALB/c, H-2^d), also administered as a single IV dose. BMC transplantation (BMC-Tx) was performed on day 7 or 14 following the administration of ^153Sm in the presence of transient T lymphocyte co-stimulatory blockade by MR-1 (hamster anti-murine CD154 mAb) on days—1, 0, 7, 14, 21 and 28, 0.5 mg IP. […] Similar data were obtained in animals treated with ^153Sm-EDTMP and not transplanted with allogeneic BMC (not shown). […] No dramatic alterations of RBC, PLT or Hb counts were evident.

[2] = system: donor-derived cells (BALB/c BMC) in recipients; assay: Hemolymphopoietic chimerism: percentage of donor-derived cells in recipient PBL by flow cytometry after allogeneic BMC-Tx; format: in vivo, C57BL/6 mice
Experimental: as §1
Immunohemotyping of chimeras. Engraftment of donor-derived BMCs was ascertained by flow cytometric analysis (FCM) of recipient peripheral blood mononuclear cells (PBMCs), splenocytes, thymocytes and bone marrow cells after staining with FITC-conjugated anti-mouse H-2K^b or H-2K^d and Cy-Chrome-conjugated CD3 monoclonal antibodies (mAbs) purchased from PharMingen (San Diego, Calif.) at multiple time points during the experiment as well as at sacrifice. Cells were also assessed for non-specific staining using an Ig isotype control (FITC-conjugated mouse IgG2a and Cy-Chrome-conjugated rat IgG2b), and the percentage of cells stained with this Ab was subtracted from the values obtained from staining with the specific Ab to determine the relative number of positive cells. Reconstitution of various cell lineages was assessed using FITC-conjugated anti-mouse H-2K^b or H-2K^d and PE-conjugated anti-mouse CD19/CD22 in the B cell, PE-conjugated anti-mouse Ly-6G in the granulocyte, and PE-conjugated anti-mouse Mac-3 in the macrophage compartments. Recipient animals were first tested 1 week after BMC-Tx, every 2 weeks up to 6 weeks, and every 4 weeks thereafter. Purified anti-mouse CD16/CD32 (FcγIII/II) was used to block non-specific binding to the Fc receptors. FCM analyses were preformed using CellQuest software on a FACScan cytometer purchased from Becton Dickinson & Co. (Mountain View, Calif.).
Typing of PBL obtained from the recipient animals starting at 2 weeks following the reconstitution with donor-derived BM allogeneic cells, every two weeks up to 6 weeks post-reconstitution, and every 4 weeks afterwards was performed using anti Class I H-2^b-FITC and H-2^d-FITC. Analysis was performed on the lymphoid gate, and the values were normalized to 100%.

[3] = system: donor-specific (Balb/c) and third party (C3H) skin grafts
Experimental: Full-thickness skin donor (Balb/c) and third party (C3H/HeJ) grafts were transplanted onto the lateral thoracic area of the recipients either the day following BMC-Tx, or 4 weeks following the last administration of MR-1 mAb, using techniques described previously. Briefly, square, full-thickness skin grafts (1 cm^2) were prepared from the tail skin of donors. Graft beds were prepared on the right (donor-specific) and left (third party) lateral thoracic wall of recipient mice. Grafts were fixed to the beds with 4 sutures of 5.0 silk at the corners of the graft and covered with a petroleum jelly-coated gauze and a plaster cast. The grafts were first inspected on the eighth-day following grafting, and every third day thereafter. Graft rejection was considered complete when no viable graft tissue was detected by visual inspection. Recipient mice were considered to be tolerant when donor-specific skin grafts survived in perfect condition for <150 days.
Grafts were prepared 30 days following the last administration of anti-CD154 mAb in the treated animals. Two different donor strain combinations, BALB/c (H-2^d), and C3H/J (H-2^k) were used. Each recipient received skin grafts from both strains: donor-type, BALB/c (H-2^d), as well as third-party, C3H/J (H-2^k). […] Grafts were followed for a minimum of 128 days and were considered rejected when viable tissue was no longer detected at the transplant site.

## O=P([O-])(O)CN(CCN(CP(=O)([O-])O)CP(=O)(O)O)CP(=O)([O-])O.[153Sm+3] [^153Sm-EDTMP]
[1]; in the presence or absence of allogeneic BMC-Tx
  reversibility of myelodepression of the WBC compartment: spontaneously reversible
[1]; single IV dose 150 or 500 μCi
  effect on red blood cell (RBC), hemoglobin (Hb) and platelet (PLT) counts: does not have significant effect
  time at which myelodepression occurred: one
  time by which myelodepression spontaneously resolved: 4-6 weeks post-administration
[1]; single IV dose 150 or 500 μCi, FIG. 1
  myelodepression (decreased white blood cell counts): transient myelodepression
[2]; 20×10^6 BMC, anti-CD154 mAb, 153Sm-EDTMP 150 or 500 μCi
  CD3+ T lymphocytes of donor origin (mixed chimerism of lymphoid lineage): CD3+ T lymphocytes of donor origin were also present
[2]; 100×10^6 BMC, anti-CD154 mAb
  chimerism levels with versus without 153Sm administration: reproducibly higher
[2]; 100×10^6 BMC, anti-CD154 mAb, 153Sm-EDTMP 150 or 500 μCi
  CD3+ T lymphocytes of donor origin (mixed chimerism of lymphoid lineage): CD3+ T lymphocytes of donor origin were also present
[2]; 100×10^6 BMC, anti-CD154 mAb, 153Sm-EDTMP 150 or 500 μCi, BMC on day 7 or 14, FIG. 2
  BM engraftment: BM engraftment in all recipient animals analyzed
[2]; absence of co-stimulatory blockade, 20×10^6 or 100×10^6 BMC, FIGS. 4-5
  chimerism in recipients of allogeneic BMC: transient chimerism
[2]; combination of BMC-Tx, 153Sm-EDTMP and anti-CD154 mAb, FIGS. 7 and 8
  multilineage chimerism (B cells, NK, granulocytes): long-term, stable multilineage chimerism
[2]; in the presence of costimulatory blockade (anti-CD154 mAb)
  chimerism in recipients of allogeneic BMC: long-lasting hemolymphopoietic chimerism
[2]; single administration prior to infusion of allogeneic bone marrow-derived cells
  chimerism across a full allogeneic barrier: high levels of stable long-term chimerism
[2]; with BMC-Tx and MR-1 co-stimulatory blockade
  effectiveness of lower dose 150 μCi versus higher dose 500 μCi: as effective as the higher dose
[2]; with costimulatory blockade
  influence of 153Sm dose (150 vs 500 μCi) and timing of BMC-Tx on chimerism: do not grossly influence the results
[3]; 20×10^6 BMC, 153Sm-EDTMP and anti-CD154 mAb
  third party (C3H/J) skin graft outcome: rejected within the same time frame as were donor-specific grafts placed on naïve recipients
[3]; 20×10^6 BMC, 153Sm-EDTMP and anti-CD154 mAb, FIG. 9
  tolerance to donor-specific skin grafts: tolerance to donor-specific skin grafts is obtained
[3]; 100×10^6 BMC, 153Sm-EDTMP and anti-CD154 mAb
  third party (C3H/J) skin graft outcome: rejected within the same time frame as were donor-specific grafts placed on naïve recipients
[3]; 100×10^6 BMC, anti-CD154 mAb, FIG. 10
  enhancing effect of 153Sm administration on graft survival: lost
[3]; a large percent of animals, followed up to 31 weeks post bone marrow transplantation, with anti-CD154 mAb
  time donor-derived skin grafts were kept: > 150 days

Reference: patent US20030228256A1, “Methods of achieving transplantation tolerance through radioablation of hemolymphopoietic cell populations” (priority 2002, published 2003)
